Results as given in patent US20250340537A1, “PHARMACEUTICALLY ACTIVE COMPOUNDS, COMPOSITIONS, AND METHODS FOR MODULATING PENDRIN” (ARBORMED Co., Ltd., priority 2022, published 2025).

Tests used:
H723R-pendrin = target: T1, H723R-pendrin (Homo sapiens, UniProt O43511, H723R); assay: PTI assay (Cl−/HCO3− exchange activity); assay type: cell-based; conditions: PANC-1 cells, BCECF pHi
T1 construct: expressed in transfected cells; host or cells: PANC-1
T1 sequence (O43511 1-780 H723R): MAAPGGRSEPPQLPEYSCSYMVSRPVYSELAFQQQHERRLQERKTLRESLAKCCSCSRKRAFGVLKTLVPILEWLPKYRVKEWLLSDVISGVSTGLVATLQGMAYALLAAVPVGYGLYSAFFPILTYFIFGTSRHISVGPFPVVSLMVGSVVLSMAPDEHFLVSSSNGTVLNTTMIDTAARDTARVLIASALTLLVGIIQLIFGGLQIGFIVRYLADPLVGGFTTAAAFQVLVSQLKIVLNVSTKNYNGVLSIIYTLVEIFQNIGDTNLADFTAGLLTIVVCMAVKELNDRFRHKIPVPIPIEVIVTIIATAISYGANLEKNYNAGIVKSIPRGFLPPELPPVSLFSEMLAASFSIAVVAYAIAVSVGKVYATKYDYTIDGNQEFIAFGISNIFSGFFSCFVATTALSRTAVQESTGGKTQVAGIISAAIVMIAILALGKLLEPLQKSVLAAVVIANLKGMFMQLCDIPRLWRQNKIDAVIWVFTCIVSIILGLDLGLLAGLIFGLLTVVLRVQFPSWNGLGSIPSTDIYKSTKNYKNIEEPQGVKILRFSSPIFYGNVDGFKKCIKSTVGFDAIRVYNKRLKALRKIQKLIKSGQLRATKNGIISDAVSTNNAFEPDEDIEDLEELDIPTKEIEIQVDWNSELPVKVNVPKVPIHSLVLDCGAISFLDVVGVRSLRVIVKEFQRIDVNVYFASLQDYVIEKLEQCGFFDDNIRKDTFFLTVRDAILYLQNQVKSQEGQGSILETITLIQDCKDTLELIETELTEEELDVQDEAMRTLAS
Description: Measurements of intracellular pH (pHi) in PANC-1 cells were performed with the pH-sensitive fluorescent probe 2′,7′-bis-(2-carboxyethyl)-5-(and-6)-carboxyfluorescein (BCECF) according to previously reported protocols. Briefly, cells were incubated with 2 μM BCECF acetoxy-methylester for 5 min and then perfused with a HCO3^−-buffered solution [containing 120 mM NaCl, 5 mM KCl, 1 mM MgCl2, 1 mM CaCl2, 10 mM d-glucose, 5 mM Hepes, and 25 mM NaHCO3 (pH 7.4)].
BCECF fluorescence was recorded at excitation wavelengths of 490 and 440 nm at a resolution of 2/s on a recording setup. The Cl^−/HCO3^− exchange activities were estimated from the initial rate of pHi increase as a result of Cl^− removal from the HCO3^−-containing buffer (25 mM HCO3^− with 5% CO2).
The pHi calibration was performed with standard pH solutions containing 150 mM KCl and 5 μM nigericin. The intrinsic buffer capacity (βi) was calculated by measuring ΔpHi in response to 5 to 40 mM NH4Cl pulses in Na^+-free solutions. Because the βi values were not substantially affected by transfection with the plasmids encoding for WT-pendrin or H723R-pendrin, the Cl^−/HCO3^− exchange activities were expressed as ΔpH unit/min without compensating for the buffer capacity.
It is indicated as exchange % with the following key: A=Exchange % greater than 50%; B=Exchange % less than 50%.

[1] = test system: pendrin in patient nasal epithelial cells; assay: Patient-derived cell-based (PDC) assay, immunofluorescence staining of pendrin; parameters: species or system human; conditions: 10 μM; for Pendrin expression on epithelial cell membrane, immunofluorescence staining: FIG. 2A; for Mean fluorescence intensity (pendrin expression intensity) vs vehicle and IL-4 groups: FIG. 2B, *p<0.05
Description: The experimental approach is grounded in a multi-step process aimed at investigating the effects of drug treatments on nasal epithelial cells. Initially, nasal tissues are collected and processed to isolate epithelial cells through tissue lysis. These cells are then cultured and subjected to Air-Liquid Interface (ALI) conditions for an extended period. Following this, drug treatments involving human IL-4 and Pendrin corrector drugs are administered, and protein harvesting is conducted for subsequent analysis. The expression of the pendrin antibody ‘hR1 (YONSEI ENT Choi lab.)’ is confirmed through Western blot analysis after drug treatments. Additionally, immunofluorescence staining is performed on Transwell membranes from different drug concentrations, and the resulting cryosections are subjected to confocal microscopy using the primary antibody ‘hR2 (YONSEI ENT Choi lab.)’. This comprehensive methodology allows for the visualization and analysis of pendrin expression in both basal and apical regions of nasal epithelial cells, providing insights into the impact of drug treatment on the targeted cellular components.
Nasal tissue were collected from patients and placed in DMEM:F12 (Lonza Cat No. 12-719F) supplemented with 1% penicillin-streptomycin in Transfer media. After removing red blood cells with PBS, tissues were subjected to tissue lysis with 1% protease in transfer media at 37° C. for 1 hour, resulting in the isolation of epithelial cells.
The obtained epithelial cells were conventionally cultured up to passage 1 in BEGM Bulletkit (Lonza Cat No. CC3170) supplemented with BSA 150 mg/ml and EGF (BD Cat No. 354001). Once reaching approximately 90% confluency, cells were detached using 0.25% Trypsin EDTA and seeded onto 12-well Transwell plates (Costar Cat No. 3450) in a 1:1 mixture of DMEM media (Lonza Cat No. 12-707F) and BEGM Bulletkit supplemented media for Air-Liquid Interface (ALI) culture.
ALI culture was initiated by adding 1 ml of media to the bottom and seeding 0.5 ml of cells on the membrane. When cells on the membrane reached 90% confluency, the bottom was filled with culture media supplemented with 50 nM Retinoic acid (RA, SIGMA Cat No. R2625), and ALI culture was performed for 7-14 days.
Subsequent to ALI culture, cells were treated with human IL-4 at […] for 24 hours, followed by treatment with ‘Compound 9, Compound 18 and Compound 105’ Pendrin corrector drugs at concentrations of 0.1, 0.3, 1, 3, 10 μM for 24 hours. After drug treatment, cells attached to the Transwell membrane were harvested by scraping into protein buffer (iNtRON Cat No. 17081). Protein quantification ([…]) was performed for each sample and the expression of the pendrin antibody ‘hR1 (YONSEI ENT custom antibody)’ was confirmed through Western blot analysis.
For immunofluorescence staining, Transwell membranes from each drug-treated concentration were fixed in 4% paraformaldehyde (PFA) at room temperature for 10 minutes. Subsequently, they were cut into three pieces using a microtome, embedded in OCT compound and processed in to 5 μm cryosections. Immunostaining using the primary antibody ‘hR2 (YONSEI ENT custom antibody)’ was conducted, and the pendrin expression in the basal and apical regions of epithelial cells was visualized using confocal microscopy (Carl Zeiss, LSM700).

## NC1=C(c2cncc(-c3ccc(O)c(O)c3)n2)C(=O)CN1c1ccccc1Cl [Compound 9]
H723R-pendrin; 3 uM
  Cl−/HCO3− exchange, % of WT-hPDS: A (A=Exchange % greater than 50%)
H723R-pendrin; 10 uM
  Cl−/HCO3− exchange, % of WT-hPDS: A (A=Exchange % greater than 50%)
[1]
  Pendrin expression on epithelial cell membrane, immunofluorescence staining: clear red fluorescence
  Mean fluorescence intensity (pendrin expression intensity) vs vehicle and IL-4 groups: significant difference

## NC1=C(c2cncc(-c3ccc(O)c(O)c3)n2)C(=O)CN1CC1CCCC1 [Compound 18]
H723R-pendrin; 3 uM
  Cl−/HCO3− exchange, % of WT-hPDS: A (A=Exchange % greater than 50%)
H723R-pendrin; 10 uM
  Cl−/HCO3− exchange, % of WT-hPDS: A (A=Exchange % greater than 50%)
[1]
  Pendrin expression on epithelial cell membrane, immunofluorescence staining: clear red fluorescence
  Mean fluorescence intensity (pendrin expression intensity) vs vehicle and IL-4 groups: significant difference

## COc1cc(-c2nccc(C3=C(N)N(CC4CCCC4)CC3=O)n2)ccc1O [Compound 105]
H723R-pendrin; 3 uM
  Cl−/HCO3− exchange, % of WT-hPDS: A (A=Exchange % greater than 50%)
H723R-pendrin; 10 uM
  Cl−/HCO3− exchange, % of WT-hPDS: A (A=Exchange % greater than 50%)
[1]
  Pendrin expression on epithelial cell membrane, immunofluorescence staining: clear red fluorescence
  Mean fluorescence intensity (pendrin expression intensity) vs vehicle and IL-4 groups: significant difference
